Measured values reported in ChEMBL document CHEMBL4251728, “Toll-like Receptors for the Treatment of Autoimmune, Inflammation, and Infectious Diseases” (ACS Med Chem Lett, 2018).

These compounds were tested against T1, Toll-like receptor 7 (Homo sapiens, UniProt Q9NYK1) (assay: Antagonist activity at TLR7 in HEK cells assessed as decrease in R848-induced NF-kappaB activation incubated for 30 mins followed by R848 addition measured after 5 hrs by steady-Glo reagent based assay).
T1 sequence (Q9NYK1 whole entry): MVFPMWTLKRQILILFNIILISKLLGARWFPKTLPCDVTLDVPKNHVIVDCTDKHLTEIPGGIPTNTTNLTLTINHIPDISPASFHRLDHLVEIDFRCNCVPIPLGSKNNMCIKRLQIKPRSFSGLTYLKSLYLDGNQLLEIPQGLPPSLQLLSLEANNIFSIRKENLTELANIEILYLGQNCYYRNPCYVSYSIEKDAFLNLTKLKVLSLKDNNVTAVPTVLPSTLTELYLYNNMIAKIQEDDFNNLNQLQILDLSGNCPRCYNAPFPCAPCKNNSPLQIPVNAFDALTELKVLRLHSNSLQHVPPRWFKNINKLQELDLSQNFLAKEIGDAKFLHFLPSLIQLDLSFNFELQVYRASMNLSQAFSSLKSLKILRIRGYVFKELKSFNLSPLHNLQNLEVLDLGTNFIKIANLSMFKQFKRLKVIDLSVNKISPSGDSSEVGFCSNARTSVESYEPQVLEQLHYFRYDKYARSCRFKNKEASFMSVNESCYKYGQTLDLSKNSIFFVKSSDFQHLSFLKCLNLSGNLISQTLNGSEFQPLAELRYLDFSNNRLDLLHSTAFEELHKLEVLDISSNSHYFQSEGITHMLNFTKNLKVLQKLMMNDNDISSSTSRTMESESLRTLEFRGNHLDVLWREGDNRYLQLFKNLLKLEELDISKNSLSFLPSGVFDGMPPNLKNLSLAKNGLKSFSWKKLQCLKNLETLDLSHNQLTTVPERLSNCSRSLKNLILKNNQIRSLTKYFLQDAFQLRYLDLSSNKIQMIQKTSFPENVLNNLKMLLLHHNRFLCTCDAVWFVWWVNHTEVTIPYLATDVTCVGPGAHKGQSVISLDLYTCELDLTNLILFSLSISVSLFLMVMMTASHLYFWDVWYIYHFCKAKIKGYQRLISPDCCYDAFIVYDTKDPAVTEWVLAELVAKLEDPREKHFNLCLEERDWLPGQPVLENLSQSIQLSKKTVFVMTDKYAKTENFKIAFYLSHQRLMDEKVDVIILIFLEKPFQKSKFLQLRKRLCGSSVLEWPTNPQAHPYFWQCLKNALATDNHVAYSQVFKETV
Assay type: cell-based

SMILES	IC50 [µM]
Cc1ccc([C@H]2C[C@@H](C)CN(C(=O)CC3CCN(C)CC3)C2)c2cccnc12	< 1
C[C@@H]1C[C@H](c2ccc(C#N)c3ncccc23)CN(C(=O)NC2CCN(C)CC2)C1	< 1
C[C@@H]1C[C@@H](c2ccc(C(F)(F)F)c3ncccc23)CN(C(=O)CCn2cccn2)C1	> 20
C[C@@H]1C[C@H](c2ccc(C#N)c3ncccc23)CN(C(=O)CN2CCN(C)CC2)C1	< 1
C[C@@H]1C[C@H](c2ccc(C#N)c3ncccc23)CN(C(=O)CC2CCN(C)CC2)C1	< 1

Second part, the compound after the results:

IC50 [µM]	SMILES
1 to 20	C[C@@H]1C[C@H](c2ccc(C(F)(F)F)c3ncccc23)CN(C(=O)NC2CC2)C1
< 1	CC1CC(c2ccc(C#N)c3ncccc23)CN(CC2CCN(C)C2)C1 (configuration not stated)
< 1	C[C@@H]1C[C@H](N)C[C@@H](c2ccc(C(F)(F)F)c3nccnc23)C1
< 1	C[C@@H]1C[C@@H](c2ccc(C#N)c3ncccc23)CN(C(=O)C[C@H]2[C@@H]3CNC[C@@H]32)C1
< 1	C[C@@H]1C[C@H](c2ccc(C#N)c3ncccc23)CN(C(=O)CC2C3CC2CN(C)C3)C1 (some centres not stated)
< 1	C[C@@H]1C[C@H](N)C[C@H](c2ccc(C(F)(F)F)c3nccnc23)C1
< 1	C[C@H]1C[C@@H](NC(=O)[C@@H](O)C(C)(C)C)C[C@H](c2ccc(C(F)(F)F)c3nccnc23)C1
